Reference: patent US11911399B2, “Treating and preventing disease with TMA and TMAO lowering agents” (The Cleveland Clinic Foundation, priority 2014, dated 2024)
Entries after “also recorded” stand apart in the source; their conditions may differ. Where two headings read alike, the source gives them in different places.

What was measured:
[1] = test system: parenchymal fibrosis and collagen deposition in mouse kidneys; assay: Renal fibrosis, Mason trichrome quantitative morphometry; type: in vivo, C57BL/6J mice; conditions: 6 weeks diet: TMAO 0.12% or choline 1.0% vs chow
Text: Quantitative Histologic Techniques.

SMAD3 = assay: Immunoblot of Smad3 phosphorylation in mouse kidneys; type: in vivo, C57BL/6J mice; conditions: 6 weeks diet: TMAO 0.12% or choline 1.0% vs chow
Text: (§1) Preparation of tissue homogenates and immunoblotting.

KIM-1 = assay: Immunoblot of KIM-1 expression in mouse kidneys; type: in vivo, C57BL/6J mice; conditions: 6 weeks diet: TMAO 0.12% or choline 1.0% vs chow
Text: as §1

cystatin C = assay: Cystatin C levels in mice (ELISA); type: in vivo; conditions: 16 weeks diet: TMAO 0.12% or choline 1.0% vs chow
microbial TMA lyase = assay: TMA lyase activity of Proteus mirabilis lysate (TMA production from d9 substrates); type: biochemical
Method: Using PM lysate (PM that is lysed in a French press to break open the cell wall and release enzyme contents) as the enzyme source, the TMA lyase activity (TMA producing activity) was examined in incubations with either d9(trimethyl)choline as substrate, or […] (GPC) as substrate. […] A further examination of the impact of ASA on TMA lyase activity by PM lysate was undertaken. Three mg of PM lysate was incubated with 25 uM choline and 25 uM choline(d9) in 2 ml PBS at 37 C for 20 hours. In FIG. 7, the dotted lines at 81 mg and 320 mg ASA represent reported steady state plasma levels of aspirin reported at those doses in human subjects. […] In light of this, in some embodiments, enteric coated aspirin or aspirin derivatives that have delayed absorption may be employed to treat disease since they would dissolve in the intestines past the stomach, such that the level of ASA or derivative delivered to the gut lumen will be higher. There exist even longer delayed release formulations of medications that could also be used.

[2] = omnivores, ASA 81 mg daily for at least a month, then daily choline supplementation
platelet aggregation = assay: Platelet aggregometry with submaximal ADP stimulation in human subjects
Method: In further works, human volunteer subject were enrolled in the following study. Individuals were examined at baseline for plasma TMAO and blood drawn for platelet aggregometry studies with submaximal ADP stimulation. Subjects were examined both naïve to aspirin, and then at different time after taking chronic aspirin (81 mg daily) for at least a month. […] After washout period of at least 4 months with no choline supplement, subjects were placed on ASA daily (81 mg) and after a month of ASA, the baseline TMAO level and platelet aggregmetry measure monitored. Then, choline supplementation daily was again resumed.
Choline supplement was used in subjects (choline bitartrate, 2×500 mg/day=choline 2×205.7 mg/day), for 2 month period. Samples were collected at baseline and monthly blood were draw (1,2 months). Plasma levels of TMAO were measured and platelet aggregation in response to 5 uM ADP were measured.

[3] = test system: in vivo thrombosis potential
[4] = Plasma TMAO in mice on chow or choline diet with or without ASA (LC/MS/MS); type: in vivo, C57BL/6J females mice; conditions: both diets (chow and choline), p<0.05 in each diet

| TMA lyase inhibition (microbial TMA lyase; 3 mg PM lysate, 25 uM choline and 25 uM choline(d9), 37 C, 20 hours, at ASA plasma level anticipated for 320 mg dose) | time to blood flow cessation ([3]; choline diet alone vs chow, p<0.0001) | SMILES | parenchymal fibrosis and collagen deposition [1] | phosphorylation of Smad3 (serine 423/425) (SMAD3) | kidney injury marker-1 (KIM-1) (KIM-1) | serum cystatin C levels (cystatin C) | inhibition of TMA production (choline TMA lyase activity) (microbial TMA lyase; PM lysate, d9(trimethyl)choline as substrate, physiological range of ASA) | inhibition of TMA production (GPC TMA lyase activity) (microbial TMA lyase; PM lysate, d9(trimethyl)glycerophosphocholine (GPC) as substrate, physiological range of ASA) | rise in plasma TMAO on choline supplementation [2] | rise in platelet aggregation on choline supplementation (platelet aggregation; omnivores, ASA 81 mg daily, submaximal ADP stimulation) | time to blood flow cessation ([3]; choline diet+ASA group vs control (chow and no ASA)) | reduction in TMAO level by addition of ASA [4] | platelet aggregometry (platelet aggregation; human, in vivo) |
| --- | --- | --- | --- | --- | --- | --- | --- | --- | --- | --- | --- | --- | --- |
| – | – | C[N+](C)(C)[O-] [TMAO, trimethylamine N-oxide] | corresponding increases in parenchymal fibrosis and collagen deposition | enhanced phosphorylation of Smad3 | increased kidney injury marker-1 | increased serum cystatin C levels compared to chow-fed mice | – | – | – | – | – | – | – |
| approximately 40% | – | CC(=O)Oc1ccccc1C(=O)O [ASA, acetylsalicylic acid] | – | – | – | – | inhibited TMA production; also recorded: inhibits | inhibited TMA production; also recorded: inhibits | The impact of the choline diet on rise in TMAO was blunted | corresponding rise in platelet aggregation too was blunted | no difference in time to blood flow cessation relative to the control | approx. 2 fold | – |
| – | reduces the time to blood flow cessation | C[N+](C)(C)CCO [choline] | corresponding increases in parenchymal fibrosis and collagen deposition | enhanced phosphorylation of Smad3 | increased kidney injury marker-1 | increased serum cystatin C levels compared to chow-fed mice | – | – | – | – | – | – | corresponding increases in platelet aggregometrry |
